# Substitutions are numbered along the chain they refer to.
# Key:
# Assay type in all cases: cell-based
# [1] = target: T1, zinc ion binding site mutant (H17A and H19A) GPR39 (Mus musculus, UniProt Q5U431, H17A/H19A); test: Calcium imaging on 293T cells transiently transfected with zinc ion binding site mutant GPR39; conditions: transiently transfected HEK293T cells
# T1 construct: 3HA (N); P2A-mCherry (C); expressed in transfected cells; host or cells: HEK293T, transient (Lipofectamine 3000)
# T1 sequence (Q5U431 1-456 H17A/H19A): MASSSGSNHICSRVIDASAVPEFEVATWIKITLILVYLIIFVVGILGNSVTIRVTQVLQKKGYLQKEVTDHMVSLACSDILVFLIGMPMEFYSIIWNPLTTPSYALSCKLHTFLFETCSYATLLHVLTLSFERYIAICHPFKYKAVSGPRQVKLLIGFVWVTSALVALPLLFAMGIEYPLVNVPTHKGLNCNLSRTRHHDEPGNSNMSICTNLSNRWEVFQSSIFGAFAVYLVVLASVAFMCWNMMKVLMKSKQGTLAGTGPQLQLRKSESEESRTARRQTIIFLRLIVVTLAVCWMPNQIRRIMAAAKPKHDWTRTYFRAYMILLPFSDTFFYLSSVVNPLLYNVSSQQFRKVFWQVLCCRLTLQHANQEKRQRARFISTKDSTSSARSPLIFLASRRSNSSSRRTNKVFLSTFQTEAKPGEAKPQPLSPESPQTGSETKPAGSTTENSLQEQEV
# From the text: (§1) In the present application, the bile acid and/or derivative thereof is capable of activating the GPR39 independent of a zinc ion binding site. For example, in some embodiments, murine-derived wild-type (WT) GPR39 or zinc ion binding site mutant (H17A and H19A) GPR39 are transiently expressed in 293T cells by using lipofectamine3000 transfection kit. The activation effect of LCAS on the wild-type (WT) and mutants (H17A and H19A) is detected by calcium imaging.
# The pCMV6-3HA-mGPR39-P2A-mCherry vector carrying murine-derived GPR39 gene and having a total length of about 7 Kbp was selected as the PCR template, and a site-directed mutant vector was obtained by PCR site-directed mutagenesis. With the mutation site as the centre, a forward primer m39-H17A-F and a reverse primer m39-H17A-R were designed by extending approximately 15 bp each way, which sequences were respectively shown in Table 3 below. At 1 bp upstream of the mutation site, a 15 bp complementary sequence to the forward primer was designed, and the length of the reverse primer was designed to maintain the annealing temperature of the primer at 60° C. A high-fidelity DNA polymerase (Phanta Max Super-fidelity DNA polymerase, Vazyme) was used for site-directed PCR. 5 μL cutsmart buffer (NEB) and 1 μL restriction endonuclease DpnI (NEB) were added into the PCR product for overnight digestion, and then 10 μL of the product was transferred into 50 μL DH5α for heat shock transformation. The corresponding resistant solid LB medium was selected to coat and culture the product and enable it grow overnight at 37° C. A single colony was picked for inoculation, and the bacteria were shaken to extract the plasmid which was verified by sequencing. A monoclonal vector which had been sequenced to be correct was selected and marked as pCMV6-3HA-mGPR39(H17A&H19A)-P2A-mCherry, which structure was shown in FIG. 5.
# HEK293T cells were seeded in a PDL-coated 96-well plate (coring Co.) at an appropriate density (about 3×10^4 cells/well) and cultured under conditions of 37° C. and 5% CO2. […]
# [2] = target: T2, murine-derived wild-type (WT) GPR39 (Mus musculus, UniProt Q5U431); test: Calcium imaging on 293T cells transiently transfected with wild-type GPR39; conditions: transiently transfected HEK293T cells
# T2 construct: 3HA (N); P2A-mCherry (C); expressed in transfected cells; host or cells: HEK293T, transient (Lipofectamine 3000)
# T2 sequence (Q5U431 1-456): T1 sequence (Q5U431 1-456 H17A/H19A) with A17H, A19H
# Protocol: as §1
# HEK293T cells were seeded in a PDL-coated 96-well plate (coring Co.) at an appropriate density (about 3×10^4 cells/well) and cultured under conditions of 37° C. and 5% CO2. 24 h after seeding, when the cell density reached 60%-70%, Lipofectamine 3000 (Invitrogen) was used for transfection, in which the concentration of plasmid transfection was 50 ng per well. […] 2) Zinc ions […] on the activation of mutants H17A and H19A of GPR39 by LCAS.
# [3] = target: T3, Neuromedin-U receptor 1 (NMUR1, NP_006047.3) (Homo sapiens, UniProt Q9HB89); test: Confocal calcium imaging of Ghrelin receptor family, overexpressed in HEK293T cells; conditions: 200 μM
# T3 construct: mCherry; host or cells: HEK293T, transient
# T3 sequence (Q9HB89 1-426): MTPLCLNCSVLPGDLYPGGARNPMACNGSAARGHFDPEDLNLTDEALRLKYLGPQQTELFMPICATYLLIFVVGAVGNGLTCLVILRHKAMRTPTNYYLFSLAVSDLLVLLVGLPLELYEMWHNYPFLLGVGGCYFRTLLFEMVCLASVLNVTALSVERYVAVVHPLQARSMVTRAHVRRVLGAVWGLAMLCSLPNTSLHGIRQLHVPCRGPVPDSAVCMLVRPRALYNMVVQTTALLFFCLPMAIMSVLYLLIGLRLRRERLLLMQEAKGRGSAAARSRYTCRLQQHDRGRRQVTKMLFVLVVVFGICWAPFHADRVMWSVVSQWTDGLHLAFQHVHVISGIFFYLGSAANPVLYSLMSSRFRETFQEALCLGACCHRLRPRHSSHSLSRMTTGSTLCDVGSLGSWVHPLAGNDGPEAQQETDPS
# Protocol: (§2) According to the transient transfection method of Example 5.2, the 6 receptors of Ghrelin family except GPR39 were overexpressed in HEK293T cells respectively (the expression vectors for these 6 receptors came from the research group of Rao Yi, Peking University), and calcium dye was incubated. An inverted laser confocal microscope (leica Co.) was used to detect the activation of the 6 receptors of Ghrelin family by LCAS. The specific operations were as below: placing the cells to be detected on the microscope stage, detecting the fluorescence signal value of the calcium dye Fluo8 with the 488 nm channel, and detecting the fluorescence signal value of mCherry with the 543 nm channel. All receptors fused to express the red fluorescence protein mCherry, and the expression of receptors was determined by detecting the red fluorescence emitted from mCherry.
# [4] = target: T4, Ghrelin receptor (GHSR, NP_940799.1) (Homo sapiens, UniProt Q92847); test: as above; conditions: 200 μM
# T4 construct: mCherry; host or cells: HEK293T, transient
# T4 sequence (Q92847 whole entry): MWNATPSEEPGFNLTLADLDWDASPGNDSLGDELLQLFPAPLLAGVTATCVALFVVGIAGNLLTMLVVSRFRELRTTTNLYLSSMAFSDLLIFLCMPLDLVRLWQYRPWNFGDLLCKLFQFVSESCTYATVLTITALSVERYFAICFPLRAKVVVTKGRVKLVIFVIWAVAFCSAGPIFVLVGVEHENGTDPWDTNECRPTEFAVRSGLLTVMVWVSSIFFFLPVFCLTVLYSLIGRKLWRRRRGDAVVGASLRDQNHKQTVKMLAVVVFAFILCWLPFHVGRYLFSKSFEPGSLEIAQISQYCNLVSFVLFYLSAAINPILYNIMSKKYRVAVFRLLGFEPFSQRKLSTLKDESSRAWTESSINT
# Protocol: as §2
# [5] = target: T5, Neurotensin receptor 2 (NTSR2, NP_036476.2) (Homo sapiens, UniProt O95665); test: as above; conditions: 200 μM
# T5 construct: mCherry; host or cells: HEK293T, transient
# T5 sequence (O95665 whole entry): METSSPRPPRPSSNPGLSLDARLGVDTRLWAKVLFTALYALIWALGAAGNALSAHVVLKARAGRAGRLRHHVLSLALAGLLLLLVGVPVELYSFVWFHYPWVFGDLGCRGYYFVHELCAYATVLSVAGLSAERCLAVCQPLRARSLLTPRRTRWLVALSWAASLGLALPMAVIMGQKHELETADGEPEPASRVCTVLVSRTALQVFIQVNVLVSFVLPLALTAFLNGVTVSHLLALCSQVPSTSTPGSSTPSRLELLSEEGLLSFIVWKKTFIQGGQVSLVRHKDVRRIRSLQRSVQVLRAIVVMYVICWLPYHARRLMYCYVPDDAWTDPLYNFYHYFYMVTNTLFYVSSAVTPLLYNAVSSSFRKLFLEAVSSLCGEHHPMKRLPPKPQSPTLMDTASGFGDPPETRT
# Protocol: as §2
SMILES,EC50 ([1]; + 4 μM zinc ions),EC50 ([1]; agonist alone),EC50 ([2]; + 4 μM zinc ions),EC50 ([2]; agonist alone),activation of NMUR1 (calcium imaging) [3],activation of GHSR (calcium imaging) [4],activation of NTSR2 (calcium imaging) [5]
C[C@H](CCC(=O)O)[C@H]1CC[C@H]2[C@@H]3CC[C@@H]4C[C@H](OS(=O)(=O)O)CC[C@]4(C)[C@H]3CC[C@]12C [LCAS],8.7 ± 0.8 µM,24 ± 0.8 µM,5.2 ± 0.7 µM,33.1 ± 5.1 µM,cannot be activated,cannot be activated,cannot be activated
"[Zn+2] [Zinc ions, reference compound]",,> 100 µM,,12 ± 5.3 µM,,,

# From patent publication US12569502B2, “Use of bile acids and derivatives thereof in preparation of GPR39 agonist” (PEKING UNIVERSITY, priority 2019, dated 2026)
